What all share (test): Receptor Tyrosine Kinase Inhibition Assay
Holding throughout (settings): pH 7.5; 23 °C

In experiment [1] the target is Receptor tyrosine-protein kinase erbB-4 (Homo sapiens, UniProt Q15303). Here is the method:
(§1) Assays were performed in 96-well microtiter plates in reaction buffer containing biotinylated substrate, ATP/[gamma-33P]ATP, and purified kinase in the presence of test compounds. Reactions were terminated and transferred to MAPH phosphocellulose filter plates. The scintillation mixture was added to each well, and the assay was quantified by counting in a Packard Topcount (Packard Instrument Co.).

The target in experiment [2] is Receptor tyrosine-protein kinase erbB-2 (Homo sapiens, UniProt P04626). Here is the method: as §1
Experiment [3] deals with Epidermal growth factor receptor (Homo sapiens, UniProt P00533). Here is the method:
as §1

What is called IC50 is the midpoint of a concentration-inhibition curve. Low readings indicate greater potency, high ones weaker potency.

Chain of Receptor tyrosine-protein kinase erbB-2 (P04626 whole entry): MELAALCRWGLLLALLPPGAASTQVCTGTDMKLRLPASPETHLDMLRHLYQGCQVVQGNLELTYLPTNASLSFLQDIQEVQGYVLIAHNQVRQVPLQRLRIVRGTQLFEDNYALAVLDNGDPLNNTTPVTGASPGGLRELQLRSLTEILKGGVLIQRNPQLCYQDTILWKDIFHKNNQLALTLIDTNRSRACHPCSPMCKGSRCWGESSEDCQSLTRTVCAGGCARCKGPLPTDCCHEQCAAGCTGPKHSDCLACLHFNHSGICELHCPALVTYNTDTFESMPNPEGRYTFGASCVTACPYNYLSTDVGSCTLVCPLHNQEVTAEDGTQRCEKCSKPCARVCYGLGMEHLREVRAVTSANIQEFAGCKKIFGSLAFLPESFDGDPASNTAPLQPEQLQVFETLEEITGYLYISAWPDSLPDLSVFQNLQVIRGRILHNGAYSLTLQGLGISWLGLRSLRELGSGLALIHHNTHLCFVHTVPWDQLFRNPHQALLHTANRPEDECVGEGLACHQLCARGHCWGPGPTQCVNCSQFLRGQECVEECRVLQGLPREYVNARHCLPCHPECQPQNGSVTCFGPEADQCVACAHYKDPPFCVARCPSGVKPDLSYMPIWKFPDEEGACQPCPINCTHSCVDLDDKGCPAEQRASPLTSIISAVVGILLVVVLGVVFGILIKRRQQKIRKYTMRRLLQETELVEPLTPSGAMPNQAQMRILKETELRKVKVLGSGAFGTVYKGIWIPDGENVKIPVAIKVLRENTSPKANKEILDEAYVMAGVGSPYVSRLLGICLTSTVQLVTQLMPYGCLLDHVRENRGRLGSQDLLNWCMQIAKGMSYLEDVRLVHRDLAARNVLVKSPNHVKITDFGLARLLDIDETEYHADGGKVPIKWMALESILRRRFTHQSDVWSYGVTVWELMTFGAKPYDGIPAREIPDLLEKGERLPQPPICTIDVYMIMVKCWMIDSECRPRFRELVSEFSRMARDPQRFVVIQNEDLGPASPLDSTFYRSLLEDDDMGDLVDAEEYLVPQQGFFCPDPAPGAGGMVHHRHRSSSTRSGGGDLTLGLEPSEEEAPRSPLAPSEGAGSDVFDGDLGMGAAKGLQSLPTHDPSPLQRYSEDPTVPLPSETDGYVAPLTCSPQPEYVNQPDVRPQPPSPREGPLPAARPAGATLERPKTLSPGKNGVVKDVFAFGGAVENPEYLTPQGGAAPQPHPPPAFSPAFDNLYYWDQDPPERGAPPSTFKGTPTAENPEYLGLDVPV
Chain of Receptor tyrosine-protein kinase erbB-4 (Q15303 whole entry): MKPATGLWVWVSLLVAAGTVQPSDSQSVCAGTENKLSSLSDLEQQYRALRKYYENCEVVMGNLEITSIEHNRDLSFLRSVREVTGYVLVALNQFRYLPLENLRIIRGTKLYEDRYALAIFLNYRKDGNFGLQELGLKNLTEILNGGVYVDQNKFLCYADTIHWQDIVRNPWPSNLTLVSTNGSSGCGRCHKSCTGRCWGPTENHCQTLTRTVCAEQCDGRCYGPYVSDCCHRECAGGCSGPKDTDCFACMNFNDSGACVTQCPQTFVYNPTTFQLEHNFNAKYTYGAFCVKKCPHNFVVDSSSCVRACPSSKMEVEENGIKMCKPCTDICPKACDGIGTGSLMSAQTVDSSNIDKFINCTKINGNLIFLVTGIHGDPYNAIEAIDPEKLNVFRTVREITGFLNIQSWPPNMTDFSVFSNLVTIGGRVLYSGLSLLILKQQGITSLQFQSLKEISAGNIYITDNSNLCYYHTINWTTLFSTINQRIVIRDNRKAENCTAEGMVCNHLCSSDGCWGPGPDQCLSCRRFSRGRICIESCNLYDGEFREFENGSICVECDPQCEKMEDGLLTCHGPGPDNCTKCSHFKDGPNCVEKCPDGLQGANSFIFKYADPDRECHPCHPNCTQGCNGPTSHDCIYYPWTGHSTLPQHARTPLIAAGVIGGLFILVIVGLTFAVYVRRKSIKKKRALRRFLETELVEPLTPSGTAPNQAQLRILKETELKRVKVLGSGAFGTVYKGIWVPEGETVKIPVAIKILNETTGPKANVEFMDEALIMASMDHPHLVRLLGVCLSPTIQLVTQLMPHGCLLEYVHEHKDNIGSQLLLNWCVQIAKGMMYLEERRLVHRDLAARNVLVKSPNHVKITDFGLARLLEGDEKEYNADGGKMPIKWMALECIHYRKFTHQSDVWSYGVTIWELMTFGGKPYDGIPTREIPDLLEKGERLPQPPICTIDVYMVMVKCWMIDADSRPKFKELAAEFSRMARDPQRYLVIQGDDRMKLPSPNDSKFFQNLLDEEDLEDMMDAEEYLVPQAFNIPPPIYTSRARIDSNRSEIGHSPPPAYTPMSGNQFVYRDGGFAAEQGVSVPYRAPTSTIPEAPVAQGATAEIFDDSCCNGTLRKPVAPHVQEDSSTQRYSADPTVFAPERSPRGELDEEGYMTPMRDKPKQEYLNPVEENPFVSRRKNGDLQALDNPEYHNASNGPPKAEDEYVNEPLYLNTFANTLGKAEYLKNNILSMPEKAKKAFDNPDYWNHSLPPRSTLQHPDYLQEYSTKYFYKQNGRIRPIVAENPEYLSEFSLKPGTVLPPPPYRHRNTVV
Chain of Epidermal growth factor receptor (P00533 whole entry): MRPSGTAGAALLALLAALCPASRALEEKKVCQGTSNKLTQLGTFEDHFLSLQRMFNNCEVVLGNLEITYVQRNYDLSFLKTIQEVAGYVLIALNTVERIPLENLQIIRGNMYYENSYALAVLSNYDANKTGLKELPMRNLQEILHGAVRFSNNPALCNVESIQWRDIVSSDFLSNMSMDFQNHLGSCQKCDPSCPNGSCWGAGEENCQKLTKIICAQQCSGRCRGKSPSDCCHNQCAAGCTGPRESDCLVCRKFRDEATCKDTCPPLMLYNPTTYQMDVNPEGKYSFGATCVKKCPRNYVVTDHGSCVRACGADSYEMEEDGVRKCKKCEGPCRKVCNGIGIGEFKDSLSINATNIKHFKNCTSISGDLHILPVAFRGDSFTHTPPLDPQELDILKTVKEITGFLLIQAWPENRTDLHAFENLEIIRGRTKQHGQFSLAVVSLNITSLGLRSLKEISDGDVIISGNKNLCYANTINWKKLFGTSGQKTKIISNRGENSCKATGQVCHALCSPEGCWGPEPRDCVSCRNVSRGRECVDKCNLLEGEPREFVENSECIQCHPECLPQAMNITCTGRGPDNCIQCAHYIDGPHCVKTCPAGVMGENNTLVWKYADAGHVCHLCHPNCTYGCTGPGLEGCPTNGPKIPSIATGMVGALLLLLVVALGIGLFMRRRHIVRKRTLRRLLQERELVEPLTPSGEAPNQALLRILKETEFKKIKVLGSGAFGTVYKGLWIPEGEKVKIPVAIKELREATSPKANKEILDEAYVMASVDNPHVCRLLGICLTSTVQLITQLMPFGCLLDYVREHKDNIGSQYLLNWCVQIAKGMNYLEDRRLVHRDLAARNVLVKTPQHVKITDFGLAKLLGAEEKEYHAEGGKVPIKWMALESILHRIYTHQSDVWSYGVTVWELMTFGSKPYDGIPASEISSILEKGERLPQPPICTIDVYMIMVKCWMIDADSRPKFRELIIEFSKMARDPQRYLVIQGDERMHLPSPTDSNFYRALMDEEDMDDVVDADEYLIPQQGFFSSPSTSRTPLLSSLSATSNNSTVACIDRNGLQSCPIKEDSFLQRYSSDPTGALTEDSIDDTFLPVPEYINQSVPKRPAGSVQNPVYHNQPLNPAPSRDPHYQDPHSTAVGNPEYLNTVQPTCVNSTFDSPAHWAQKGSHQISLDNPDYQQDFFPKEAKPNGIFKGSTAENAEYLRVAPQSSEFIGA

In the case of `Fc1cccc(COc2ccc(Nc3ncnc4sc(C#C[C@H]5CCCN5)cc34)cc2Cl)c1` [N-{3-chloro-4-[(3-fluorophenyl)methoxy]phenyl}-6-{2-[(2R)-pyrrolidin-2-yl]ethynyl}thieno[2,3-d]pyrimidin-4-amine], the IC50 in experiment [1] turned out to be 2300 nM; in experiment [2], 54 nM; in experiment [3] it was 109 nM.

As for `C[C@H](N)C#Cc1cc2c(Nc3ccc(OCc4cccc(F)c4)c(Cl)c3)ncnc2s1` [6-[(3S)-3-aminobut-1-yn-1-yl]-N-{3-chloro-4-[(3-fluorophenyl)methoxy]phenyl}thieno[2,3-d]pyrimidin-4-amine], the figures for the half-maximal inhibitory concentration (IC50) in experiment [1], in experiment [2] and in experiment [3] were 638 nM, 44 nM and 69 nM, respectively.

Regarding `C[C@H](N)C#Cc1cc2ncnc(Nc3ccc(OCc4cccc(F)c4)c(Cl)c3)c2s1` [6-[(3S)-3-aminobut-1-yn-1-yl]-N-{3-chloro-4-[(3-fluorophenyl)methoxy]phenyl}thieno[3,2-d]pyrimidin-4-amine], the concentration for half-maximal inhibition (IC50) in experiment [1] is 412 nM; in experiment [2] it was 27 nM; in experiment [3] it was 64 nM.

`C#Cc1cc2ncnc(Nc3ccc(OCc4cccc(F)c4)c(Cl)c3)c2s1` [N-{3-chloro-4-[(3-fluorophenyl)methoxy]phenyl}-6-ethynylthieno[3,2-d]pyrimidin-4-amine]: the half-inhibitory concentration (IC50) in experiment [2] amounted to 12 nM; in experiment [3], 24 nM.

On to `Fc1cccc(COc2ccc(Nc3ncnc4cc(C#C[C@H]5CCCN5)sc34)cc2Cl)c1` [N-{3-chloro-4-[(3-fluorophenyl)methoxy]phenyl}-6-{2-[(2R)-pyrrolidin-2-yl]ethynyl}thieno[3,2-d]pyrimidin-4-amine], for which the IC50 came to 66 nM in experiment [1], 13 nM in experiment [2] and 7 nM in experiment [3].

With `C#Cc1cc2c(Nc3ccc(OCc4cccc(F)c4)c(Cl)c3)ncnc2s1` [N-{3-chloro-4-[(3-fluorophenyl)methoxy]phenyl}-6-ethynylthieno[2,3-d]pyrimidin-4-amine], the IC50 in experiment [1] was 1720 nM; in experiment [2], 19 nM; in experiment [3], 71 nM.

Turning to `Nc1cnc(C#Cc2cc3ncnc(Nc4ccc(OCc5cccc(F)c5)c(Cl)c4)c3s2)cn1` [5-{2-[4-({3-chloro-4-[(3-fluorophenyl)methoxy]phenyl}amino)thieno[3,2-d]pyrimidin-6-yl]ethynyl}pyrazin-2-amine], the IC50 in experiment [1] stood at 254 nM; in experiment [2], 10 nM; in experiment [3] it was 47 nM.

On to `Nc1cnc(C#Cc2cc3c(Nc4ccc(OCc5cccc(F)c5)c(Cl)c4)ncnc3s2)cn1` [5-{2-[4-({3-chloro-4-[(3-fluorophenyl)methoxy]phenyl}amino)thieno[2,3-d]pyrimidin-6-yl]ethynyl}pyrazin-2-amine], for which the IC50 in experiment [1] was 1350 nM; in experiment [2], 52 nM; in experiment [3] it was 372 nM.

For the origin of these results see BindingDB's records for doi:10.1073/pnas.0708281105 (Gsk, 2008).
